Measurements from US20250051335A1, “TAU-TUBULIN KINASE (TTBK) INHIBITOR COMPOUNDS” (CONSEJO SUPERIOR DE INVESTIGACIONES CIENTÍFICAS (CSIC), priority 2021, published 2025).

Tests used:
[1] = Permeability of the blood-brain barrier by PAMPA (porcine brain lipid); settings: for Prediction of crossing the BBB: based on Ep correlated with 10 control drugs; for Papp at 2.5 h: pig, pH 7.4
[2] = target: recombinant human enzyme TTBK1 (1-1321) (Homo sapiens (Human), UniProt Q5TCY1); assay: Enzymatic inhibition of TTBK1 (33P-ATP radiometric kinase assay); type: biochemical; settings: recombinant human TTBK1 (1-1321), 0.005 mM ATP, 30 minutes at room temperature
Description: (§1) The final reaction mixture contains the peptide at a concentration of 0.3 mM, 10 mM magnesium acetate and 0.005 mM [33P-γ-ATP](50-1000 cpm/pmol). The reaction mixture is incubated for 30 minutes at room temperature and the reaction is stopped after the addition of 5 μl of orthophosphoric acid.

[3] = target: recombinant human enzyme TTBK2(1-450) (Homo sapiens (Human), UniProt Q6IQ55); assay: Enzymatic inhibition of TTBK2 (33P-ATP radiometric kinase assay); type: biochemical; settings: recombinant human TTBK2(1-450), 0.005 mM ATP, 30 minutes at room temperature
Description: as §1

Chain of recombinant human enzyme TTBK2(1-450) (Q6IQ55 1-450): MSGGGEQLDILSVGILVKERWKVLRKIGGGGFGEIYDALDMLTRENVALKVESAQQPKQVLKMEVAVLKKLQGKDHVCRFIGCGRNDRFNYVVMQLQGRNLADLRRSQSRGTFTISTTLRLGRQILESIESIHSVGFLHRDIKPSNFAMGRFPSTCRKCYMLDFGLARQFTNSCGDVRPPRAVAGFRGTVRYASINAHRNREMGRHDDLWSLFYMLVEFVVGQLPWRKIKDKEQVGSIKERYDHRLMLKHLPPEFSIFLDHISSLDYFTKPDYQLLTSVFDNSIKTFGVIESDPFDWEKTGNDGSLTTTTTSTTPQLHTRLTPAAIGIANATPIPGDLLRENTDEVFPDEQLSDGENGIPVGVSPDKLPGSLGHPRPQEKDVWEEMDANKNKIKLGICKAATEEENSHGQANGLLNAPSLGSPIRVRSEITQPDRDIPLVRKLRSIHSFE
Chain of recombinant human enzyme TTBK1 (1-1321) (Q5TCY1 whole entry): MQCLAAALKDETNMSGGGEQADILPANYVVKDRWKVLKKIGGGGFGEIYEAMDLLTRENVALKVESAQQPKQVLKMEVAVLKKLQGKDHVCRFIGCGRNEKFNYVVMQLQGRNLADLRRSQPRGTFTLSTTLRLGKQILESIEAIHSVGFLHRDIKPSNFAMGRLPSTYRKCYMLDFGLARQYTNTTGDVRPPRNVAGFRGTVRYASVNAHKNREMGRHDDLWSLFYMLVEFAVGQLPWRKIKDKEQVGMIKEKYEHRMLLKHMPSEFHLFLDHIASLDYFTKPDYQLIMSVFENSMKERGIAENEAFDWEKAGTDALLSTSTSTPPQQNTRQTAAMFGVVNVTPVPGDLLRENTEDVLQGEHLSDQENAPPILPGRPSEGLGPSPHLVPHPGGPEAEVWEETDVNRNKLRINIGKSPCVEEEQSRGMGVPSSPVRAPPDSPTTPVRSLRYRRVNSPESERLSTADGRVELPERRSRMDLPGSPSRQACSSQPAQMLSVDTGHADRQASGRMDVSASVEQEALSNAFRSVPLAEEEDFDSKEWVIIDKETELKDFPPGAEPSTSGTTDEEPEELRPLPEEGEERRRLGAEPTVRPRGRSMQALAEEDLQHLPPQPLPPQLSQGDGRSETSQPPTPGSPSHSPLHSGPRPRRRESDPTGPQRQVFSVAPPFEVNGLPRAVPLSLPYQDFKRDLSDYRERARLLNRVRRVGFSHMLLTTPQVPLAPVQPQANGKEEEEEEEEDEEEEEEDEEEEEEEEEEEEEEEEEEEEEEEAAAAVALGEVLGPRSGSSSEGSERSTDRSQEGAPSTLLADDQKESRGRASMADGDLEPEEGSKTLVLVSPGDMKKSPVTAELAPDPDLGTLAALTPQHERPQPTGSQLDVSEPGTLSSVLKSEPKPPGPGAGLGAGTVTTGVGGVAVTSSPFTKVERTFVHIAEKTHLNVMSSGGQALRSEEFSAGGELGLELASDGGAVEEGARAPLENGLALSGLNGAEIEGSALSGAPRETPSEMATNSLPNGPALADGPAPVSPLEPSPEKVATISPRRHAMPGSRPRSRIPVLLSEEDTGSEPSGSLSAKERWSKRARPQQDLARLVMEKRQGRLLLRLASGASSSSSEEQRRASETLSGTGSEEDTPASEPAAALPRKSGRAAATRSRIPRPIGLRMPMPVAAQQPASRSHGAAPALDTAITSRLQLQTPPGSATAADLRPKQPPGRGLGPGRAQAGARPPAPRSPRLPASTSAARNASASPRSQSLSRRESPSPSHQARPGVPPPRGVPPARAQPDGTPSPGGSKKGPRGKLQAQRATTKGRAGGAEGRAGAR

Structure (SMILES)	Prediction of crossing the BBB [1]	Papp at 2.5 h [1] [×10⁻⁶ cm/s]	IC50 [2] [nM]	IC50 [3] [µM]
c1ccc(Oc2ccc(Nc3ncnc4[nH]ccc34)cc2)cc1 [Compound 1, N-(4-phenoxyphenyl)-7H-pyrrolo[2,3-d]pyrimidin-4-amine]	CNS+	23.2 ± 1.4		
Clc1ccc(Oc2ccc(Nc3ncnc4[nH]ccc34)cc2)cc1 [Compound 2, N-[4-(4-chlorophenoxy)phenyl]-7H-pyrrolo[2,3-d]pyrimidin-4-amine]	CNS+	11.5 ± 1		
Fc1ccc(Oc2ccc(Nc3ncnc4[nH]ccc34)cc2)cc1 [Compound 3, N-[4-(4-fluorophenoxy)phenyl]-7H-pyrrolo[2,3-d]pyrimidin-4-amine]	CNS+	15.6 ± 1.3	770 ± 140	3.02 ± 0.82
COc1ccc(Oc2ccc(Nc3ncnc4[nH]ccc34)cc2)cc1 [Compound 5, N-[4-(4-methoxyphenoxy)phenyl]-7H-pyrrolo[2,3-d]pyrimidin-4-amine]	CNS+	11.8 ± 0.3		
FC(F)(F)c1ccc(Oc2ccc(Nc3ncnc4[nH]ccc34)cc2)cc1 [Compound 6, N-[4-(4-trifluoromethylphenoxy)phenyl]-7H-pyrrolo[2,3-d]pyrimidin-4-amine]	CNS+	7.6 ± 1.4		
Brc1ccc(Oc2ccc(Nc3ncnc4[nH]ccc34)cc2)cc1 [Compound 7, N-[4-(4-bromophenoxy)phenyl]-7H-pyrrolo[2,3-d]pyrimidin-4-amine]	CNS+	11 ± 1.2		
O=[N+]([O-])c1ccc(Oc2ccc(Nc3ncnc4[nH]ccc34)cc2)cc1 [Compound 8, N-[4-(4-nitrophenoxy)phenyl]-7H-pyrrolo[2,3-d]pyrimidin-4-amine]	CNS+	14.3 ± 1.1		
Cc1ccc(Oc2ccc(Nc3ncnc4[nH]ccc34)cc2)cc1 [Compound 10, N-[4-(4-methylphenoxy)phenyl]-7H-pyrrolo[2,3-d]pyrimidin-4-amine]	CNS+	18.7 ± 1.4		
Cc1cccc(Oc2ccc(Nc3ncnc4[nH]ccc34)cc2)c1 [Compound 11, N-[4-(3-methylphenoxy)phenyl]-7H-pyrrolo[2,3-d]pyrimidin-4-amine]	CNS+	14 ± 0.4		
Nc1nc(Nc2ccc(Oc3cccc(C(F)(F)F)c3)cc2)c2cc[nH]c2n1 [Compound 19, N4-(4-(3-(trifluoromethyl)phenoxy)phenyl]-7H-pyrrolo[2,3-d]pyrimidine-2,4-diamine]	CNS+	7.7 ± 0.6	1320 ± 40	3.9 ± 0.48
Nc1nc(Nc2ccc(Oc3cccc(Cl)c3)cc2)c2cc[nH]c2n1 [Compound 21, N4-(4-(3-chlorophenoxy)phenyl)-7H-pyrrolo[2,3-d]pyrimidine-2,4-diamine]	CNS+	14.1 ± 0.4	370 ± 120	3.05 ± 0.07
Nc1ccc(Sc2ccc(Nc3ncnc4[nH]ccc34)cc2)cc1 [Compound 23, N-[4-((4-aminophenyl)thio)phenyl]-7H-pyrrolo[2,3-d]pyrimidin-4-amine]	CNS+	4.7 ± 0.5		

More lines, main results first:

Prediction of crossing the BBB [1]	Papp at 2.5 h [1] [×10⁻⁶ cm/s]	Structure (SMILES)	IC50 [2] [nM]	IC50 [3] [µM]
CNS+	8.4 ± 1.6	Clc1cccc(Oc2ccc(Nc3ncnc4[nH]ccc34)cc2)c1 [Compound 12, N-[4-(3-chlorophenoxy)phenyl]-7H-pyrrolo[2,3-d]pyrimidin-4-amine]		> 100
CNS+	6.8 ± 1.4	FC(F)(F)c1cccc(Oc2ccc(Nc3ncnc4[nH]ccc34)cc2)c1 [Compound 13, N-[4-(3-trifluoromethylphenoxy)phenyl]-7H-pyrrolo[2,3-d]pyrimidin-4-amine]		
CNS+	9.7 ± 1	Clc1ccccc1Oc1ccc(Nc2ncnc3[nH]ccc23)cc1 [Compound 14, N-[4-(2-chlorophenoxy)phenyl]-7H-pyrrolo[2,3-d]pyrimidin-4-amine]		
CNS+	17.3 ± 0.1	Clc1ccc(Oc2ccc(Nc3ncnc4[nH]ccc34)cc2)c(Cl)c1 [Compound 16, N-[4-(2.4-chlorophenoxy)phenyl]-7H-pyrrolo[2,3-d]pyrimidin-4-amine]	2300 ± 540	5.72 ± 2.65
CNS+	10.5 ± 0.7	COc1cccc(Oc2ccc(Nc3ncnc4[nH]ccc34)cc2)c1 [Compound 17, N-[4-(3-methoxyphenoxy)phenyl]-7H-pyrrolo[2,3-d]pyrimidin-4-amine]		
CNS+	7.5 ± 0.1	Nc1nc(Nc2ccc(Oc3ccc(C(F)(F)F)cc3)cc2)c2cc[nH]c2n1 [Compound 18, N4-(4-(4-(trifluoromethyl)phenoxy)phenyl]-7H-pyrrolo[2,3-d]pyrimidine-2,4-diamine]	580 ± 80	4.49 ± 1.16
CNS+	9.7 ± 1	Nc1nc(Nc2ccc(Oc3ccc(Cl)cc3)cc2)c2cc[nH]c2n1 [Compound 20, N4-(4-(4-chlorophenoxy)phenyl]-7H-pyrrolo[2,3-d]pyrimidine-2,4-diamine]		
CNS+	18.3 ± 1.2	c1ccc(COc2ccc(Nc3ncnc4[nH]ccc34)cc2)cc1 [Compound 24, N-[4-(benzyloxy)phenyl]-7H-pyrrolo[2,3-d]pyrimidin-4-amine]		
CNS+	6.9 ± 0.6	O=C(c1ccccc1)c1ccc(Nc2ncnc3[nH]ccc23)cc1 [Compound 25, (4-((7H-pyrrolo[2,3-d]pyrimidin-4-yl)amino)phenyl](phenyl)methanone]		
CNS+	9.4 ± 0.4	O=C(c1ccc(F)cc1)c1ccc(Nc2ncnc3[nH]ccc23)cc1 [Compound 26, (4-((7H-pyrrolo[2,3-d]pyrimidin-4-yl)amino)phenyl](4-fluorophenyl)methanone]		
